Results reported in patent US5047521A, “5-fluorouracil derivatives” (Otsuka Pharmaceutical Co., Ltd., priority 1986, dated 1991).

System: Sarcoma-180
Test: Pharmacological Test I: tumor weight in ICR mice subcutaneously transplanted with Sarcoma-180, oral administration
Format: in vivo
Conditions: Mus musculus, Sarcoma-180, 240 h, once a day for 7 consecutive days, tumor weight on 10th day after transplantation, read-out: ED50 (50% tumor inhibition dose, T/C = 0.5)
Experimental: Sarcoma-180 subcultured in an ascites of ICR mice was diluted with a physiological saline solution and subcutaneously transplanted into the backs of ICR mice in an amount of 2×10^7 cells each. Twenty-four hours after the transplantation, a test compound suspended in a 5% solution of gum arabic was orally administered to each of mice once a day for 7 consecutive days.
The solid tumor was isolated from under the dorsal skin of mice on the 10th day after the transplantation to measure the weight of the tumor. There was determined the ratio (T/C) of the weight of tumor (T) cut out from the group of mice treated with the test compound to the weight of tumor (C) from the group of mice not treated therewith. The 50% tumor inhibition dose (ED50 value) in which T/C is 0.5 was determined from the dose-response curve of dosage and the ratio (T/C).

Question: How did the ED50 turn out when `CCC(=O)OC[C@H]1O[C@@H](n2cc(F)c(=O)[nH]c2=O)C[C@@H]1OCc1cccs1` was run?
Answer: Its ED50 is 2 mg/kg.
